# Patent US8853213B2, “Bicyclic compound for modulating G protein-coupled receptors” (Hanmi Pharm. Co., Ltd, priority 2011, dated 2014)
# pEC50: −log10 of the molar value.
# Molecular target: T1, GPR119 (Homo sapiens, UniProt Q8TDV5)
# T1 construct: host or cells: CHO-K1 (CRE-bla reporter, doxycycline-induced)
# T1 sequence (Q8TDV5 1-335): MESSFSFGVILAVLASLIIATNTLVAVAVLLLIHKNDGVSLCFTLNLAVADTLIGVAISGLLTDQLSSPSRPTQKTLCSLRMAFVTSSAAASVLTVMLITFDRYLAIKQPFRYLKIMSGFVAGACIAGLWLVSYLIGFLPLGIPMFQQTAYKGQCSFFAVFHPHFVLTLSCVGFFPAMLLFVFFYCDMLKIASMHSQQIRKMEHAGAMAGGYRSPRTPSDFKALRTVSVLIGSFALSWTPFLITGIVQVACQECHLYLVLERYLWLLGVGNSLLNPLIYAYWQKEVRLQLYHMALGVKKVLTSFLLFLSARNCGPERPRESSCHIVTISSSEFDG
# Assay: Controlling Effect of GPR119 in CRE-bla CHO-K1 Cells (EC50)
# Type: cell-based
# Details: GPR119 CRE-bla CHO-K1 cell line, 5 hr incubation with compound, β-lactamase LiveBLAzer-FRET B/G readout; read-out: controlling effect against GPR119 in CRE-bla CHO-K1 cell line (EC50)
# In short: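 CHO-K1 cells carrying GPR119 and a CRE-β-lactamase reporter, induced with doxycycline for 16-20 h at 37° C, then exposed to compounds in 10-fold dilutions for 5 h. CCF4-AM FRET substrate added for 2 h at room temperature; blue/green fluorescence (409 ex, […]) read and EC50 derived.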
row,pEC50,Compound
1,< 6.00,"CS(=O)(=O)c1ccc(-c2csc3c(NC4CCNCC4)ncnc23)cc1 [Example 110, 7-(4-methanesulfonyl-phenyl)-N-(piperidin-4-yl)thieno[3,2-d]pyrimidin-4-amine]"
2,> 7.00,CC(C)c1noc(N2CCC(Oc3ncnc4c(-c5ccc(S(C)(=O)=O)cc5)csc34)CC2)n1 [Example 51]
3,< 6.00,CS(=O)(=O)c1ccc(-c2csc3c(OC4CCN(c5nccc(C(F)(F)F)n5)CC4)ncnc23)cc1 [Example 59]
4,> 7.00,"CC(C)(C)c1noc(N2CCC(Oc3ncnc4c(-c5ccc(S(C)(=O)=O)cc5F)csc34)CC2)n1 [Example 71, 7-(2-fluoro-4-methanesulfonyl-phenyl)-4-[1-(3-t-butyl-[1,2,4]oxadiazol-5-yl)piperidin-4-yloxy]thieno[3,2-d]pyrimidine]"
5,< 6.00,CS(=O)(=O)c1ccc(-c2csc3c(OC4CCN(C(=O)c5cccnc5)CC4)ncnc23)c(F)c1 [Example 90]
6,> 7.00,"CC(C)(C)OC(=O)N1CCC(Oc2ncnc3c(-c4ccc(S(C)(=O)=O)cc4)csc23)CC1 [Example 50, tert-butyl 4-(7-(4-methanesulfonyl-phenyl)thieno[3,2-d]pyrimidin-4-yloxy)piperidine-1-carboxylate]"
7,< 6.00,"Cn1cc(-c2ccc(S(C)(=O)=O)cc2)c2ncnc(NC3CCN(C(=O)OC(C)(C)C)CC3)c21 [Example 116, tert-butyl 4-(5-methyl-7-(4-methanesulfonyl-phenyl)-5H-pyrrolo[3,2-d]pyrimidin-4-ylamino)piperidin-1-carboxylate]"
8,< 6.00,"CC(C)c1noc(N2CCC(Oc3ncnc4c(-c5ccc(SC(F)(F)F)cc5)csc34)CC2)n1 [Example 100, 4-[1-(3-isopropyl-[1,2,4]oxadiazol-5-yl)-piperidin-4-yloxy]-7-(4-trifluoromethylsulfanyl-phenyl)-thieno[3,2-d]pyrimidine]"
9,> 7.00,"Cn1cc(-c2ccc(-n3cnnn3)cc2)c2ncnc(OC3CCN(C(=O)OC(C)(C)C)CC3)c21 [Example 120, tert-butyl 4-(7-(4-(1H-tetrazol-1-yl)phenyl)-5-methyl-5H-pyrrolo[3,2-d]pyrimidin-4-yloxy)piperidin-1-carboxylate]"
10,< 6.00,"Cn1cc(-c2ccc(-n3cnnn3)cc2)c2ncnc(O[C@H]3CCN(C(=O)OC(C)(C)C)C3)c21 [Example 125, (S)-tert-butyl 3-[5-methyl-7-(4-tetrazol-1-yl-phenyl)-5H-pyrrolo[3,2-d]pyrimidin-4-yloxy)pyrrolidin-1-carboxylate]"
11,> 7.00,"Cn1cc(-c2ccc(-n3cnnn3)cc2)c2ncnc(OC3CCN(c4ncc(C(F)(F)F)cn4)CC3)c21 [Example 123, 7-(4-(1H-tetrazol-1-yl)phenyl)-5-methyl-4-(1-(5-(trifluoromethyl)pyrimidin-2-yl)piperidin-4-yloxy)-5H-pyrrolo[3,2-d]pyrimidine]"
12,> 7.00,"CC(C)n1nnc(N2CCC(Oc3ncnc4c(-c5ccc(S(C)(=O)=O)cc5F)csc34)CC2)n1 [Example 94, 7-(2-fluoro-4-methanesulfonyl-phenyl)-4-(1-(2-isopropyl-2H-tetrazol-5-yl)piperidin-4-yloxy)thieno[3,2-d]pyrimidine]"
13,> 7.00,"CS(=O)(=O)c1ccc(-c2csc3c(OC4CCN(c5nc(C6CC6)no5)CC4)ncnc23)c(F)c1 [Example 63, 7-(2-fluoro-4-methanesulfonyl-phenyl)-4-[1-(3-cyclopropyl-[1,2,4]oxadiazol-5-yl)piperidin-4-yloxy]thieno[3,2]pyrimidine]"
14,> 7.00,"CCc1cnc(N2CCC(Oc3ncnc4c(-c5ccc(S(C)(=O)=O)cc5)csc34)CC2)nc1 [Example 55, 4-(1-(5-ethylpyrimidin-2-yl)piperidin-4-yloxy)-7-(4-methanesulfonyl-phenyl)thieno[3,2-d]pyrimidine]"
15,> 7.00,"CS(=O)(=O)c1ccc(-c2csc3c(OC4CCN(C(=O)c5ccccc5)CC4)ncnc23)c(F)c1 [Example 89, {4-[7-(2-fluoro-4-methanesulfonyl-phenyl)-thieno[3,2-d]pyrimidin-4-yloxy]-piperidin-1-yl}phenyl-methanone]"
16,< 6.00,"CC(=O)N1CCC(Oc2ncnc3c(-c4ccc(S(C)(=O)=O)cc4F)csc23)CC1 [Example 87, 1-(4-(7-(2-fluoro-4-methanesulfonyl-phenyl)thieno[3,2-d]pyrimidin-4-yloxy)piperidin-1-yl)ethanone]"
17,> 7.00,"CS(=O)(=O)c1ccc(-c2csc3c(OC4CCN(c5ncc(C6CC6)cn5)CC4)ncnc23)c(F)c1 [Example 84, 7-(2-fluoro-4-methanesulfonyl-phenyl)-4-[1-(5-cyclopropyl-pyrimidin-2-yl)-piperidin-4-yloxy]-thieno[3,2-d]pyrimidine]"
18,> 7.00,"CS(=O)(=O)c1ccc(-c2csc3c(OC4CCN(c5nc6ccccc6o5)CC4)ncnc23)c(F)c1 [Example 77, 2-(4-(7-(2-fluoro-4-methanesulfonyl-phenyl)thieno[3,2-d]pyrimidin-4-yloxy)piperidin-1-yl)benzo[d]oxazole]"

# Second part, the compound before the results:
row,Compound,pEC50
1,"CC(C)c1noc(N2CCC(Oc3ncnc4c(-c5ccc(S(C)(=O)=O)cc5)cn(C)c34)CC2)n1 [Example 35, 3-isopropyl-5-(4-(5-methyl-7-(4-methanesulfonyl-phenyl)-5H-pyrrolo[3,2-d]pyrimidin-4-yloxy)piperidin-1-yl)-1,2,4-oxadiazole]",> 7.00
2,"Cn1cc(-c2ccc(S(C)(=O)=O)cc2)c2ncnc(OC3CCN(c4ncc(C(F)(F)F)cn4)CC3)c21 [Example 28, 5-methyl-7-(4-methanesulfonyl-phenyl)-4-(1-(5-(trifluoromethyl)pyrimidin-2-yl)piperidin-4-yloxy)-5H-pyrrolo[3,2-d]pyrimidine]",> 7.00
3,"7-(2-fluoro-4-4-[1-(5-trifluoromethylpyrimidin-2-yl)-piperidin-4-yloxy]-thieno[3,2-d]pyrimidine [Example 82]",> 7.00
4,"CCc1cnc(N2CCC(Oc3ncnc4c(-c5ccc(C(C)=O)cc5)cn(C)c34)CC2)nc1 [Example 44, 1-(4-{4-[1-(5-ethylpyrimidin-2-yl)-piperidin-4-yloxy]-5-methyl-5H-pyrrolo[3,2-d]pyrimidin-7-yl}-phenyl)-ethanone]",6.00 to 7.00
5,"Cn1cc(-c2ccc(S(C)(=O)=O)cc2)c2ncnc(OC3CCN(C(=O)C(C)(C)C)CC3)c21 [Example 46, 1-{4-[7-(4-methanesulfonyl-phenyl)-5-methyl-5H-pyrrolo[3,2-d]pyrimidin-4-yloxy]-piperidin-1-yl}-2,2-dimethynyl-propan-1-one]",6.00 to 7.00
6,"CCc1noc(C2CCN(c3ncnc4c(-c5ccc(S(C)(=O)=O)cc5)csc34)CC2)n1 [Example 4, 3-ethyl-5-(1-(7-(4-methanesulfonyl-phenyl)thieno[3,2-d]pyrimidin-4-yl)piperidin-4-yl)-1,2,4-oxadiazole]",6.00 to 7.00
7,"CC(C)c1noc(C2CCN(c3ncnc4c(-c5ccc(S(=O)(=O)C6CC6)cc5)csc34)CC2)n1 [Example 21, 7-(4-(cyclopropylsulfonyl)phenyl)-4-[4-(3-isopropyl-[1,2,4]oxadiazol-5-yl)-piperidin-1-yl]-thieno[3,2-d]pyrimidine]",> 7.00
8,"CCc1cnc(N2CCC(Oc3ncnc4c(-c5ccc(S(C)(=O)=O)cc5F)cn(C)c34)CC2)nc1 [Example 29, 4-(1-(5-ethylpyrimidin-2-yl)piperidin-4-yloxy)-7-(2-fluoro-4-methanesulfonyl-phenyl)-5-methyl-5H-pyrrolo[3,2-d]pyrimidine]",> 7.00
9,"CC(C)c1noc(C2CCN(c3ncnc4c(-c5ccc(S(C)(=O)=O)cc5)csc34)CC2)n1 [Example 5, 3-isopropyl-5-(1-(7-(4-methanesulfonyl-phenyl)thieno[3,2-d]pyrimidin-4-yl)piperidin-4-yl)-1,2,4-oxadiazole]",> 7.00
10,"CC(C)N1CCC(Oc2ncnc3c(-c4ccc(S(C)(=O)=O)cc4)cn(C)c23)CC1 [Example 45, 4-(1-isopropyl-piperidin-4-yloxy)-7-(4-methanesulfonyl-phenyl)-5-methyl-5H-pyrrolo[3,2-d]pyrimidine]",6.00 to 7.00
11,CC(C)c1noc(C2CCN(c3ncnc4c(-c5ccc(S(C)(=O)=O)c(F)c5)csc34)CC2)n1 [Example 13],< 6.00
12,CCCc1cnc(N2CCC(Oc3ncnc4c(-c5ccc(S(C)(=O)=O)cc5F)cn(C)c34)CC2)nc1 [Example 30],> 7.00
13,"CS(=O)(=O)c1ccc(-c2csc3c(N4CCC(c5nc(C6CCCCC6)no5)CC4)ncnc23)cc1 [Example 7, 3-cyclohexyl-5-(1-(7-(4-methanesulfonyl-phenyl)thieno[3,2-d]pyrimidin-4-yl)piperidin-4-yl)-1,2,4-oxadiazole]",> 7.00
14,"CCc1cnc(N2CCC(COc3ncnc4c(-c5ccc(S(C)(=O)=O)cc5)cn(C)c34)CC2)nc1 [Example 49, 4-((1-(5-ethylpyrimidin-2-yl)piperidin-4-yl)methoxy)-5-methyl-7-(4-methanesulfonyl-phenyl)-5H-pyrrolo[3,2-d]pyrimidine]",6.00 to 7.00
15,"Cn1cc(-c2ccc(F)nc2)c2ncnc(OC3CCN(C(=O)OC(C)(C)C)CC3)c21 [Example 47, tert-butyl 4-(7-(6-fluoropyridin-3-yl)-5-methyl-5H-pyrrolo[3,2-d]pyrimidin-4-yloxy)piperidine-1-carboxylate]",< 6.00
